Test results: patent US20230250096A1, “SUBSTITUTED PHENYL-1H-PYRROLO[2,3-c] PYRIDINE DERIVATIVES” (Janssen Pharmaceutica NV, priority 2021, published 2023)

Key:
[1] = target: T1, menin/MLL (terbium chelate-labeled menin, FITC-MBM1 peptide) (Homo sapiens, UniProt O00255, T541A); experiment: Menin/MLL homogenous time-resolved fluorescence (HTRF) assay; type: binding; settings: 30 min incubation
T1 construct: Menin (a.a 1-610-6xhis tag, 2.3 mg/mL in 20 mM Hepes)
T1 sequence (O00255 with tags, fused parts or gaps T541A): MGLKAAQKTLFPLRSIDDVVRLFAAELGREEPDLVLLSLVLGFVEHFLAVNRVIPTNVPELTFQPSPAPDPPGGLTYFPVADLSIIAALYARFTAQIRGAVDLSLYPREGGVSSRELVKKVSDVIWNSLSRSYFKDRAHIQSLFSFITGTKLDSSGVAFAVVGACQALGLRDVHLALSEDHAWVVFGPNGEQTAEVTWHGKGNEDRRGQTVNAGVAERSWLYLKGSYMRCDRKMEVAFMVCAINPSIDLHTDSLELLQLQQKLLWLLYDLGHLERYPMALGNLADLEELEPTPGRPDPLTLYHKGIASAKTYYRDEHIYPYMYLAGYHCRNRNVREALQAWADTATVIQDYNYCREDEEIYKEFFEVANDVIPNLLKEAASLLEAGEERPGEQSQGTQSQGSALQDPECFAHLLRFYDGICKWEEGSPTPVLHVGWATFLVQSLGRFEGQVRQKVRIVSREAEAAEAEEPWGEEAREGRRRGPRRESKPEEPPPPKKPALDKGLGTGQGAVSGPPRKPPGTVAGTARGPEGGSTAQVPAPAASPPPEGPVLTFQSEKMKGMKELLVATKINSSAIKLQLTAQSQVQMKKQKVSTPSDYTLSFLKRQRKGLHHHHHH
Summary of the method: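 Competition binding read by time-resolved FRET (FITC 520 nm over terbium 490 nm) after compound meets labeled menin 1-610-His […] for 30 min, then FITC-MBM1 (75 nM) for 15 min, ambient temperature, 0.5% DMSO. Eleven-point four-fold dilutions, usually starting at 10 μM, fitted to four-parameter curves for IC50.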

MEIS1 mRNA expression = MEIS1 mRNA expression assay (Quantigene Singleplex) in MOLM14 cells; type: cell-based, human; settings: 48 hours incubation
Summary of the method: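 Read-out: MEIS1 transcript counts, background-subtracted and divided by RPL28, expressed as fold change over DMSO-treated cells, then dose-response modelled for IC50. MOLM14 cells (3,750/well) received graded compound for 48 h before lysis and QuantiGene hybridization at 55 °C.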

| IC50 [1] [nM] | IC50 (MEIS1 mRNA expression; Homo sapiens, MOLM-14, 48 h) [nM] | IC50 (MEIS1 mRNA expression) [nM] | Compound |
| --- | --- | --- | --- |
| 0.481 | ~502 |  | Cc1cncc2c1c(CC1CN(CC3CCOCC3)C1)cn2-c1ccc(F)cc1C(=O)N(C)C1(CO)CC1 [Compound 277] |
| 0.255 |  | 269 | CC(=O)N1CCC(CN2CCC(Cc3cn(-c4ccc(F)cc4C(=O)N(C)C(C)C)c4cncc(C)c34)C2C)CC1 (centres unmarked) [Compound 226] |
| 0.042 | ~27.6 |  | CCc1cncc2c1c(C[C@H]1CCN(CC3CCN(C(C)=O)CC3)C1)cn2-c1ccc(F)cc1C(=O)N(C)C(C)C [Compound 260] |
| 0.116 | 55 |  | CC(=O)N1CC2CC(CN3CC(Cc4cn(-c5ccc(F)cc5C(=O)N(C)C(C)C)c5cncc(C)c45)C3)CC(C2)C1 (centres unmarked) [Compound 300] |
| 0.179 |  | 116 | CCC(C1CCN(C(C)=O)CC1)N1CC[C@@H](Cc2cn(-c3ccc(F)cc3C(=O)N(C)C(C)C)c3cncc(C)c23)C1 (single isomer, unassigned) [Compound 247] |
| 0.191 | 144 |  | CC(=O)N1[C@H](C)CC(N2CC(Cc3cn(-c4ccc(F)cc4C(=O)N(C)C(C)C)c4cncc(C)c34)C2)C[C@@H]1C (some centres unmarked) [Compound 301] |
| 0.05 | 78 |  | CC(=O)N1[C@@H](C)CC(N2CC(Cc3cn(-c4ccc(F)cc4C(=O)N(C)C(C)C)c4cncc(C)c34)C2)C[C@@H]1C (some centres unmarked) [Compound 302] |
| 19 |  | 2560 | Cc1cncc2c1c(C=C1CCN(C)C1)cn2-c1ccc(F)cc1C(=O)N(C)C(C)C (single isomer, unassigned) [Compound 524a] |
| 0.031 | 7 |  | CCN(C(=O)c1cc(F)ccc1-n1cc(C[C@@H]2CCN(CC3CCOCC3)C2)c2c(C)cncc21)C(C)C [Compound 257] |
| 0.024 | 13 |  | CC(=O)N1CCN(CCC[C@H](C(C)C)N2CC[C@@H](Cc3cn(-c4ccc(F)cc4C(=O)N(C)C(C)C)c4cncc(C)c34)C2)CC1 (single isomer, unassigned) [Compound 8a] |
| 0.047 | 92 |  | Cc1cncc2c1c(C[C@@H]1CCN(CC3COC3)C1)cn2-c1ccc(F)cc1C(=O)N(C)C(C)C (single isomer, unassigned) [Compound 46] |
| 3.27 | > 1000 |  | Cc1cncc2c1c(CC1CN(CC3CCOCC3)C1)cn2-c1ccc(F)cc1C(=O)N1C[C@H](O)C[C@@H]1C [Compound 282] |
| 0.292 | ~670 |  | Cc1cncc2c1c(C[C@@H]1CCN(CC3CCOCC3)C1)cn2-c1ccc(F)cc1C(=O)N1CC[C@H](O)C1(C)C (single isomer, unassigned) [Compound 364b] |
| 0.201 | > 1000 |  | Cc1cncc2c1c(C[C@@H]1CCN([C@H](CCC3OCCO3)C(C)C)C1)cn2-c1ccc(F)cc1C(=O)N(C)C(C)C (single isomer, unassigned) [Compound 367] |
| 0.291 | 299 |  | CC(=O)N1CCCC(N2CC[C@@H](Cc3cn(-c4ccc(F)cc4C(=O)N(C)C(C)C)c4cncc(C)c34)C2)C1 (mixture of isomers) [Compound 215] |
| 0.122 | ~810 |  | Cc1cncc2c1c(C[C@@H]1CCN([C@H]3CCNC(=O)CC3)C1)cn2-c1ccc(F)cc1C(=O)N(C)C(C)C (single isomer, unassigned) [Compound 139a] |
| 0.057 |  | 16 | CCC(C1CCN(C(C)=O)CC1)N1CC[C@@H](Cc2cn(-c3ccc(F)cc3C(=O)N(C)C(C)C)c3cncc(C)c23)C1 (single isomer, unassigned) [Compound 246] |
| 5.45 | > 1000 |  | CC(=O)N1CCC([C@H](C)N2CC[C@@H](Cc3cn(-c4ccc(F)cc4[S@](=N)(=O)C(C)C)c4cncc(C)c34)C2)CC1 (single isomer, unassigned) [Compound 230b] |
| 0.128 | 33 |  | COC(=O)N1CCC(CN2CC[C@@H](Cc3cn(-c4ccc(F)cc4C(=O)N(C[C@@H](C)O)C(C)C)c4cncc(C)c34)C2)CC1 [Compound 336] |
| 0.311 | 109 |  | Cc1cncc2c1c(CC1CN(C[C@H]3CC[C@@H](C(=O)N(C)C)CC3)C1)cn2-c1ccc(F)cc1C(=O)N(C)C(C)C [Compound 221] |

| IC50 [1] [nM] | IC50 (MEIS1 mRNA expression; Homo sapiens, MOLM-14, 48 h) [nM] | IC50 (MEIS1 mRNA expression) [nM] | Compound |
| --- | --- | --- | --- |
| 0.04 | < 0.8 |  | COCCNCCCC(C(C)C)N1CC[C@H](Cc2cn(-c3ccc(F)cc3C(=O)N(C)C(C)C)c3cncc(C)c23)C1 (mixture of isomers) [Compound 15] |
| 0.019 | 5 |  | CC(=O)N1C[C@@H]2CN(CCC[C@H](C(C)C)N3CC[C@@H](Cc4cn(-c5ccc(F)cc5C(=O)N(C)C(C)C)c5cncc(Cl)c45)C3)C[C@H]2C1 (single isomer, unassigned) [Compound 18a] |
| 0.932 | > 1000 |  | CC(=O)N1C[C@@H]2[C@H](CN3CC[C@@H](Cc4cn(-c5ccc(F)cc5C(=O)N(C)C(C)C)c5cncc(C)c45)C3)[C@@H]2C1 [Compound 220] |
| 0.053 | 77 |  | CC(=O)N1CCC([C@@H](C)N2CC[C@@H](Cc3cn(-c4ccc(F)cc4[S@](=N)(=O)C(C)C)c4cncc(C)c34)C2)CC1 (single isomer, unassigned) [Compound 230a] |
| 0.217 | ~792 |  | CC(=O)N1CC[C@@H](CN2CCC(Cc3cn(-c4ccc(F)cc4C(=O)N(C)C(C)C)c4cncc(C)c34)C2)C1 (single isomer, unassigned) [Compound 99] |
| 0.146 | ~297 |  | CC(=O)N1CC2C(CN3CC(Cc4cn(-c5ccc(F)cc5C(=O)N(C)C(C)C)c5cncc(C)c45)C3)C2C1 (centres unmarked) [Compound 305] |
| 0.323 | 342 |  | Cc1cncc2c1c(CC1CN(CC3CCOCC3)C1)cn2-c1ccc(F)cc1C(=O)N(CCO)C1CC1 [Compound 278] |
| 0.049 | 13 |  | Cc1cncc2c1c(C[C@H]1CCN(CC3CCN(C(=O)C(C)C)CC3)C1)cn2-c1ccc(F)cc1C(=O)N(C)C(C)C (single isomer, unassigned) [Compound 121] |
| 0.098 | 225 |  | Cc1cncc2c1c(C[C@@H]1CCN(CC3CCOCC3)C1)cn2-c1ccc(F)cc1C(=O)N1CC[C@@H](O)C1(C)C (single isomer, unassigned) [Compound 364a] |
| 3.02 | > 1000 |  | CC(=O)N1CC(CN2CCC(Cc3cn(-c4ccc(F)cc4C(=O)N(C)C(C)C)c4cncc(C)c34)CC2)C1 [Compound 102] |
| 1.73 | > 1000 |  | Cc1cncc2c1c(C[C@@H]1CCN([C@@H](CCO)C3CCOCC3)C1)cn2-c1ccc(F)cc1C(=O)N(C)C(C)C (single isomer, unassigned) [Compound 253b] |
| 0.462 | 287 |  | Cc1cncc2c1c(C[C@@H]1CCN([C@H](C)C3CCOCC3)C1)cn2-c1ccc(F)cc1[S@@](=N)(=O)C(C)C (single isomer, unassigned) [Compound 182a] |
| 0.037 | 23 |  | Cc1cncc2c1c(C[C@@H]1CCN(CC3CCN(C(=O)N(C)C)CC3)C1)cn2-c1ccc(F)cc1C(=O)N(C)C(C)C [Compound 149] |
| 0.124 | 6 |  | CC(=O)N1C[C@@H]2CN(CCCC(C(C)C)N3CC[C@H](Cc4cn(-c5ccc(F)cc5C(=O)N(C)C(C)C)c5cncc(C)c45)C3)C[C@H]2C1 (mixture of isomers) [Compound 13] |
| 0.052 | ~470 |  | CC(=O)N1C[C@@H]2CN([C@H]3C[C@@H](CN4CC[C@H](Cc5cn(-c6ccc(F)cc6C(=O)N(C)C(C)C)c6cncc(C)c56)C4)C3)C[C@H]2C1 (single isomer, unassigned) [Compound 31] |
| 1.94 | > 1000 |  | CC(=O)N1CCC(CN2CC[C@@H](Cc3cn(-c4ccc(F)cc4C(=O)NC(C)C)c4cncc(C)c34)C2)CC1 [Compound 238] |
| 7.29 | ~2810 |  | Cc1cncc2c1c(C[C@@H]1CCN([C@@H](C)C3CCOCC3)C1)cn2-c1ccc(F)cc1[S@](=N)(=O)C(C)C (single isomer, unassigned) [Compound 180b] |
| 0.139 | 117 |  | CC(=O)N[C@H]1CC[C@H](CN2CC(Cc3cn(-c4ccc(F)cc4C(=O)N(C)C(C)C)c4cncc(C)c34)C2)CC1 [Compound 118] |
| 0.084 | 173 |  | CNC(=O)[C@H]1CC[C@@H](CN2CC(Cc3cn(-c4ccc(F)cc4C(=O)N(C)C(C)C)c4cncc(C)c34)C2)CC1 [Compound 241] |
| 0.051 | 42 |  | CC(=O)N1CCC(CN2C[C@@H](Cc3cn(-c4ccc(F)cc4C(=O)N(C)C(C)C)c4cncc(C)c34)C[C@@H]2C)CC1 [Compound 133] |
